Results as given in the supplement of paper PMC10307832.

How the values were obtained:
Assay in all cases: relative viability (nuclei count vs DMSO), 5 days (fraction); higher = more cells survive
Pemetrexed + Crizotinib = compound: Nc1nc2[nH]cc(CCc3ccc(C(=O)N[C@@H](CCC(=O)O)C(=O)O)cc3)c2c(=O)[nH]1 [Pemetrexed] + C[C@@H](Oc1cc(-c2cnn(C3CCNCC3)c2)cnc1N)c1c(Cl)ccc(F)c1Cl [Crizotinib] (partner 1 µM)
Summary of the method: (§1)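 Relative viability is defined as nuclei in treated wells over nuclei in vehicle wells. Duplicate plates were run and medians reported. Lung cancer cell lines in 1536-well plates were dosed by pin tool one day after seeding, with one drug or with a fixed anchor-drug dose plus five library-drug doses (not always all listed) in √10 steps, and nuclei were counted after 5 days.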

Pemetrexed + Decitabine = compound: Nc1nc2[nH]cc(CCc3ccc(C(=O)N[C@@H](CCC(=O)O)C(=O)O)cc3)c2c(=O)[nH]1 [Pemetrexed] + Nc1ncn([C@H]2C[C@H](O)[C@@H](CO)O2)c(=O)n1 [Decitabine] (partner 2 µM)
Summary of the method: as §1

Idelalisib + Navitoclax = compound: CC[C@H](Nc1ncnc2[nH]cnc12)c1nc2cccc(F)c2c(=O)n1-c1ccccc1 [Idelalisib] + CC1(C)CCC(c2ccc(Cl)cc2)=C(CN2CCN(c3ccc(C(=O)NS(=O)(=O)c4ccc(N[C@H](CCN5CCOCC5)CSc5ccccc5)c(S(=O)(=O)C(F)(F)F)c4)cc3)CC2)C1 [Navitoclax] (partner 0.5 µM)
Summary of the method: as §1

Idelalisib + Foretinib = compound: CC[C@H](Nc1ncnc2[nH]cnc12)c1nc2cccc(F)c2c(=O)n1-c1ccccc1 [Idelalisib] + COc1cc2c(Oc3ccc(NC(=O)C4(C(=O)Nc5ccc(F)cc5)CC4)cc3F)ccnc2cc1OCCCN1CCOCC1 [Foretinib] (partner 0.25 µM)
Summary of the method: as §1

NCI-H1792
relative viability (Pemetrexed + Crizotinib; first compound 0.002 µM): 0.993 | relative viability (Pemetrexed + Crizotinib; first compound 0.006325 µM): 0.972 | relative viability (Pemetrexed + Crizotinib; first compound 0.02 µM): 0.987 | relative viability (Pemetrexed + Crizotinib; first compound 0.06325 µM): 0.974 | relative viability (Pemetrexed + Crizotinib; first compound 0.2 µM): 0.937 | relative viability (Pemetrexed + Decitabine; first compound 0.002 µM): 0.506 | relative viability (Pemetrexed + Decitabine; first compound 0.006325 µM): 0.532 | relative viability (Pemetrexed + Decitabine; first compound 0.02 µM): 0.527 | relative viability (Pemetrexed + Decitabine; first compound 0.06325 µM): 0.507 | relative viability (Pemetrexed + Decitabine; first compound 0.2 µM): 0.56 | relative viability (Idelalisib + Navitoclax; first compound 0.04 µM): 0.464 | relative viability (Idelalisib + Navitoclax; first compound 0.1265 µM): 0.587 | relative viability (Idelalisib + Navitoclax; first compound 0.4 µM): 0.617 | relative viability (Idelalisib + Navitoclax; first compound 1.265 µM): 0.667 | relative viability (Idelalisib + Navitoclax; first compound 4 µM): 0.645

EKVX
relative viability (Idelalisib + Foretinib; first compound 0.04 µM): 0.826 | relative viability (Idelalisib + Foretinib; first compound 0.1265 µM): 0.984 | relative viability (Idelalisib + Foretinib; first compound 0.4 µM): 0.773 | relative viability (Idelalisib + Foretinib; first compound 1.265 µM): 0.843 | relative viability (Idelalisib + Foretinib; first compound 4 µM): 0.808 | relative viability (Pemetrexed + Crizotinib; first compound 0.002 µM): 0.816 | relative viability (Pemetrexed + Crizotinib; first compound 0.006325 µM): 0.841 | relative viability (Pemetrexed + Crizotinib; first compound 0.02 µM): 0.907 | relative viability (Pemetrexed + Crizotinib; first compound 0.06325 µM): 0.856 | relative viability (Pemetrexed + Crizotinib; first compound 0.2 µM): 0.508 | relative viability (Pemetrexed + Decitabine; first compound 0.002 µM): 0.405 | relative viability (Pemetrexed + Decitabine; first compound 0.006325 µM): 0.257 | relative viability (Pemetrexed + Decitabine; first compound 0.02 µM): 0.368 | relative viability (Pemetrexed + Decitabine; first compound 0.06325 µM): 0.316 | relative viability (Pemetrexed + Decitabine; first compound 0.2 µM): 0.325 | relative viability (Idelalisib + Navitoclax; first compound 0.04 µM): 0.863 | relative viability (Idelalisib + Navitoclax; first compound 0.1265 µM): 0.914 | relative viability (Idelalisib + Navitoclax; first compound 0.4 µM): 0.876 | relative viability (Idelalisib + Navitoclax; first compound 1.265 µM): 0.807 | relative viability (Idelalisib + Navitoclax; first compound 4 µM): 0.853

EPLC-272H
relative viability (Idelalisib + Foretinib; first compound 0.04 µM): 0.793 | relative viability (Idelalisib + Foretinib; first compound 0.1265 µM): 0.667 | relative viability (Idelalisib + Foretinib; first compound 0.4 µM): 0.662 | relative viability (Idelalisib + Foretinib; first compound 1.265 µM): 0.635 | relative viability (Idelalisib + Foretinib; first compound 4 µM): 0.517 | relative viability (Pemetrexed + Crizotinib; first compound 0.002 µM): 0.781 | relative viability (Pemetrexed + Crizotinib; first compound 0.006325 µM): 0.913 | relative viability (Pemetrexed + Crizotinib; first compound 0.02 µM): 1.07 | relative viability (Pemetrexed + Crizotinib; first compound 0.06325 µM): 0.981 | relative viability (Pemetrexed + Crizotinib; first compound 0.2 µM): 0.853 | relative viability (Pemetrexed + Decitabine; first compound 0.002 µM): 0.348 | relative viability (Pemetrexed + Decitabine; first compound 0.006325 µM): 0.377 | relative viability (Pemetrexed + Decitabine; first compound 0.02 µM): 0.413 | relative viability (Pemetrexed + Decitabine; first compound 0.06325 µM): 0.33 | relative viability (Pemetrexed + Decitabine; first compound 0.2 µM): 0.296 | relative viability (Idelalisib + Navitoclax; first compound 0.04 µM): 1.08 | relative viability (Idelalisib + Navitoclax; first compound 0.1265 µM): 1.14 | relative viability (Idelalisib + Navitoclax; first compound 0.4 µM): 1 | relative viability (Idelalisib + Navitoclax; first compound 1.265 µM): 1 | relative viability (Idelalisib + Navitoclax; first compound 4 µM): 0.959

LK-2
relative viability (Idelalisib + Foretinib; first compound 0.04 µM): 1.75 | relative viability (Idelalisib + Foretinib; first compound 0.1265 µM): 1.16 | relative viability (Idelalisib + Foretinib; first compound 1.265 µM): 1.29 | relative viability (Idelalisib + Foretinib; first compound 4 µM): 0.836 | relative viability (Pemetrexed + Crizotinib; first compound 0.006325 µM): 0.252 | relative viability (Pemetrexed + Crizotinib; first compound 0.02 µM): 0.221 | relative viability (Pemetrexed + Crizotinib; first compound 0.06325 µM): 0.249 | relative viability (Pemetrexed + Crizotinib; first compound 0.2 µM): 0.247 | relative viability (Pemetrexed + Decitabine; first compound 0.002 µM): 0.277 | relative viability (Pemetrexed + Decitabine; first compound 0.006325 µM): 0.358 | relative viability (Pemetrexed + Decitabine; first compound 0.02 µM): 0.259 | relative viability (Pemetrexed + Decitabine; first compound 0.06325 µM): 0.251 | relative viability (Pemetrexed + Decitabine; first compound 0.2 µM): 0.263 | relative viability (Idelalisib + Navitoclax; first compound 0.04 µM): 0.99 | relative viability (Idelalisib + Navitoclax; first compound 0.1265 µM): 0.835 | relative viability (Idelalisib + Navitoclax; first compound 1.265 µM): 1.02 | relative viability (Idelalisib + Navitoclax; first compound 4 µM): 0.729

CAL-12T
relative viability (Idelalisib + Foretinib; first compound 0.04 µM): 1.27 | relative viability (Idelalisib + Foretinib; first compound 0.1265 µM): 1.13 | relative viability (Idelalisib + Foretinib; first compound 0.4 µM): 1.09 | relative viability (Idelalisib + Foretinib; first compound 1.265 µM): 1.16 | relative viability (Idelalisib + Foretinib; first compound 4 µM): 1.39 | relative viability (Pemetrexed + Crizotinib; first compound 0.002 µM): 0.647 | relative viability (Pemetrexed + Crizotinib; first compound 0.006325 µM): 0.67 | relative viability (Pemetrexed + Crizotinib; first compound 0.02 µM): 0.971 | relative viability (Pemetrexed + Crizotinib; first compound 0.06325 µM): 0.65 | relative viability (Pemetrexed + Crizotinib; first compound 0.2 µM): 0.643 | relative viability (Idelalisib + Navitoclax; first compound 0.04 µM): 1.24 | relative viability (Idelalisib + Navitoclax; first compound 0.1265 µM): 1.32 | relative viability (Idelalisib + Navitoclax; first compound 0.4 µM): 1.14 | relative viability (Idelalisib + Navitoclax; first compound 1.265 µM): 1.29 | relative viability (Idelalisib + Navitoclax; first compound 4 µM): 1.06

NCI-H322M
relative viability (Idelalisib + Foretinib; first compound 0.04 µM): 1.22 | relative viability (Idelalisib + Foretinib; first compound 0.1265 µM): 1.1 | relative viability (Idelalisib + Foretinib; first compound 0.4 µM): 0.792 | relative viability (Idelalisib + Foretinib; first compound 1.265 µM): 0.841 | relative viability (Idelalisib + Foretinib; first compound 4 µM): 0.908 | relative viability (Pemetrexed + Crizotinib; first compound 0.002 µM): 0.886 | relative viability (Pemetrexed + Crizotinib; first compound 0.006325 µM): 0.884 | relative viability (Pemetrexed + Crizotinib; first compound 0.02 µM): 1.05 | relative viability (Pemetrexed + Crizotinib; first compound 0.06325 µM): 0.912 | relative viability (Pemetrexed + Crizotinib; first compound 0.2 µM): 0.778 | relative viability (Pemetrexed + Decitabine; first compound 0.002 µM): 0.722 | relative viability (Pemetrexed + Decitabine; first compound 0.006325 µM): 0.642 | relative viability (Pemetrexed + Decitabine; first compound 0.02 µM): 0.655 | relative viability (Pemetrexed + Decitabine; first compound 0.06325 µM): 0.794 | relative viability (Pemetrexed + Decitabine; first compound 0.2 µM): 0.612 | relative viability (Idelalisib + Navitoclax; first compound 0.04 µM): 1.2 | relative viability (Idelalisib + Navitoclax; first compound 0.1265 µM): 1.2 | relative viability (Idelalisib + Navitoclax; first compound 0.4 µM): 1.09 | relative viability (Idelalisib + Navitoclax; first compound 1.265 µM): 1.25 | relative viability (Idelalisib + Navitoclax; first compound 4 µM): 1.04

NCI-H1650
relative viability (Idelalisib + Foretinib; first compound 0.04 µM): 1.33 | relative viability (Idelalisib + Foretinib; first compound 0.1265 µM): 1.42 | relative viability (Idelalisib + Foretinib; first compound 0.4 µM): 0.944 | relative viability (Idelalisib + Foretinib; first compound 1.265 µM): 0.864 | relative viability (Idelalisib + Foretinib; first compound 4 µM): 0.917 | relative viability (Pemetrexed + Crizotinib; first compound 0.002 µM): 0.971 | relative viability (Pemetrexed + Crizotinib; first compound 0.006325 µM): 0.902 | relative viability (Pemetrexed + Crizotinib; first compound 0.02 µM): 0.939 | relative viability (Pemetrexed + Crizotinib; first compound 0.06325 µM): 0.689 | relative viability (Pemetrexed + Crizotinib; first compound 0.2 µM): 0.332 | relative viability (Pemetrexed + Decitabine; first compound 0.002 µM): 0.426 | relative viability (Pemetrexed + Decitabine; first compound 0.006325 µM): 0.32 | relative viability (Pemetrexed + Decitabine; first compound 0.02 µM): 0.545 | relative viability (Pemetrexed + Decitabine; first compound 0.06325 µM): 0.249 | relative viability (Pemetrexed + Decitabine; first compound 0.2 µM): 0.317 | relative viability (Idelalisib + Navitoclax; first compound 0.04 µM): 1.15 | relative viability (Idelalisib + Navitoclax; first compound 0.1265 µM): 1.39 | relative viability (Idelalisib + Navitoclax; first compound 0.4 µM): 1.08 | relative viability (Idelalisib + Navitoclax; first compound 1.265 µM): 1.15 | relative viability (Idelalisib + Navitoclax; first compound 4 µM): 0.748

NCI-H2342
relative viability (Idelalisib + Foretinib; first compound 0.04 µM): 1.02 | relative viability (Idelalisib + Foretinib; first compound 0.1265 µM): 1.11 | relative viability (Idelalisib + Foretinib; first compound 0.4 µM): 0.886 | relative viability (Idelalisib + Foretinib; first compound 1.265 µM): 0.896 | relative viability (Idelalisib + Foretinib; first compound 4 µM): 0.729 | relative viability (Pemetrexed + Decitabine; first compound 0.002 µM): 0.675 | relative viability (Pemetrexed + Decitabine; first compound 0.006325 µM): 0.701 | relative viability (Pemetrexed + Decitabine; first compound 0.02 µM): 0.767 | relative viability (Pemetrexed + Decitabine; first compound 0.06325 µM): 0.716 | relative viability (Pemetrexed + Decitabine; first compound 0.2 µM): 0.835
